According to publication PMC7357788, “Overlapping functions and protein-protein interactions of LRR-extensins in Arabidopsis” (PLoS Genetics, 2020):
“Also recorded” adds a separate entry of the source.

Assays:
[1] = molecular target: LRX1 (LRX1^ΔE-FLAG); test: BLITZ (biolayer interferometry) RALF1-LRX1 binding; set-up: species or system Arabidopsis thaliana; details: purified LRX^ΔE expressed in N. benthamiana, synthetic RALF1 peptide, association 120 s, dissociation 120 s
Protocol: (§1) The kinetics of the interaction of LRX proteins with RALF1 were tested with Biolayer Interferometry (BLITZ). The LRX^ΔE-FLAG proteins of LRX1, LRX3, LRX4, and LRX5 used for this experiment were expressed transiently in tobacco. […] For RALF1, in vitro synthesized peptide was used. […] While the LRX^ΔE-FLAG had to be soluble in order to get purified prior to application on the sensor (for details, see Materials and Methods), it cannot be completely ruled out that LRX3^ΔE-FLAG has a reduced solubility in this experiment that would provide an alternative explanation for the observed high Kd.
(§2) The BLITZ experiments were performed as previously described. The LRR^ΔE–FLAG versions of the different LRXs were expressed using the 35S promoter in N. benthamiana, presence of proteins was checked by immunoblotting, and proteins were immune-precipitated as described above. […] Protein concentration was determined by Qubit measurement (Quant-iTTM Protein Assay kit, Invitrogen). […] Different RALF synthetic peptide (PHTD peptides) concentrations (200 μM, 150 μM, 100 μM, 50 μM, 20 μM, 15 μM, 10 μM, 4 μM, 2 μM and 0.2 μM) were added to quantify the protein interaction.
(§3) Supplementary file pgen.1008847.s004.pdf: S4 Fig BLITZ output data. […] Association/dissociation or RALF1 depends on the concentration of applied RALF1, based on which the Kd is calculated. […]

[2] = system: LRX3 (LRX3^ΔE-FLAG); test: BLITZ (biolayer interferometry) RALF1-LRX3 binding; set-up: species or system Arabidopsis thaliana; details: compared with LRX1, LRX4, and LRX5
Protocol: as §1, §2

[3] = molecular target: LRX4 (LRX4^ΔE-FLAG); test: BLITZ (biolayer interferometry) RALF1-LRX4 binding; set-up: species or system Arabidopsis thaliana; details: purified LRX^ΔE expressed in N. benthamiana, synthetic RALF1 peptide, association 120 s, dissociation 120 s
Protocol: as §1, §2, §3

[4] = molecular target: LRX5 (LRX5^ΔE-FLAG); test: BLITZ (biolayer interferometry) RALF1-LRX5 binding; set-up: species or system Arabidopsis thaliana; details: purified LRX^ΔE expressed in N. benthamiana, synthetic RALF1 peptide, association 120 s, dissociation 120 s
Protocol: as §1, §2

[5] = system: LRX1^ΔE; test: Co-IP of LRX1^ΔE-HA with RALF1-FLAG; type: binding, Arabidopsis thaliana; details: Co-IP and immunoblotting, transient expression in N. benthamiana
Protocol: Here, we tested binding of RALF1 to LRX1.
(§4) For pulldown and Co-IP analysis of the different constructs indicated in the experiments DNA was infiltrated into Nicotiana benthamiana leaves, and after 48 hrs, the leaves were excised and ground in liquid nitrogen as described in [62]. Two hundred mg of tissue powder was re-suspended in 500 μL extraction buffer [200 mM Tris-HCl (pH 7.5), 150 mM NaCl, 1 mM PMSF, protease inhibitor and 0.5% Triton X-100]. The suspension was incubated on ice for 30 minutes and then centrifuged at 11,000 rpm for 20 minutes at 4°C. The supernatant (200 μL) was then incubated with 10 μL anti-HA (Thermo Scientific, 88837), or anti-FLAG magnetic beads overnight at 4°C on a rotating shaker. If RALF1 peptide was added, the peptide was diluted in such way that for every sample 1μL of peptide was added to the protein extracts. After incubation, the beads were washed five times with the wash buffer (extraction buffer containing 0.05% Triton X-100) and boiled in SDS-PAGE loading buffer for 15 minutes at 75°C. The immunoprecipitates were then run on an SDS-PAGE gel and transferred to nitrocellulose membrane to perform immunoblotting using the following antibodies: anti-FLAG M2 (Sigma-Aldrich, F3165), anti-GFP (Biolegend, 902601), anti-HA-HRP 3F10 (Roche, 12 013 819 001) and anti-mouse-HRP (Sigma Aldrich, A 4416). […]

[6] = system: LRX1; test: Yeast-two-hybrid RALF1-LRX1; type: binding, Arabidopsis thaliana; details: Y2H, yeast strain PJ69-4A, growth on -Trp, Leu, His, Ade drop-out medium
Excerpt: (§5) The BD-LRX4 and AD-FER^ECD constructs for the Yeast-two-hybrid experiment were cloned as previously described, where NtermFER equals AD-FER^ECD and LRR4 equals BD-LRX4. For the BD-LRX1/2/3/5 constructs, the coding sequence of the LRR domain of the LRXs was amplified using primers (S3 Table) to introduce a BamHI and a XhoI site at the 5’ and 3’ end of the PCR fragments, respectively. These were cloned into pJET1.2 (Thermo Scientific) and correct clones were cut with BamHI and XhoI and ligated into pGBKT7 cut with BamHI and SalI. The AD-RALF1 construct was cloned into pJET1.2 (Thermo Scientific) by amplification of the coding sequence with the primers y2h_RALF1_F and y2h_RALF1_R. A correct clone was cut with EcoRI and XmaI and ligated into pGADT7 cut with EcoRI and XmaI.
(§6) Transformation of the yeast strain PJ69-4A [63] was done following standard procedures and quadruple drop-out medium lacking Leu, Trp, His, and Ade were used to screen for positive interactions after 4 days incubation at 30°C. Three different colonies containing both vectors were mixed and plated in triplicates on quadruple drop-out medium.
(§7) Supplementary file pgen.1008847.s002.pdf: S2 Fig Interaction of LRX1 and RALF1 in yeast. The yeast strain PJ69-4A was transformed with pGADT7-RALF1 and pGBKT7-LRR1 or pGBKT7-LRR4, and with either of the constructs with empty plasmids for the negative controls. […]

[7] = system: LRX4; test: Yeast-two-hybrid RALF1-LRX4; type: binding, Arabidopsis thaliana; details: Y2H, yeast strain PJ69-4A, growth on -Trp, Leu, His, Ade drop-out medium
Excerpt: as §5, §6, §7

[8] = system: LRX1^ΔE-FER^ECD interaction; test: Co-IP: effect of added RALF1 on LRX1^ΔE-FER^ECD interaction; type: binding, Arabidopsis thaliana; details: synthetic RALF1 peptide 50, 100, 200, 1000 nM added to extracts
Excerpt: In a next step, the dynamics of LRX-RALF1-FER interaction was investigated with a focus on LRX1. To this end, extracts used to show Co-IP of LRX1^ΔE and FER^ECD were supplemented with increasing concentrations of RALF1 peptide.
as §4, with “75°C.” for “75°C. The immunoprecipitates were then run on an SDS-PAGE gel and transferred to nitrocellulose membrane to perform immunoblotting using the following antibodies: anti-FLAG M2 (Sigma-Aldrich, F3165), anti-GFP (Biolegend, 902601), anti-HA-HRP 3F10 (Roche, 12 013 819 001) and anti-mouse-HRP (Sigma Aldrich, A 4416).”

[9] = system: Arabidopsis seedlings; test: Root growth inhibition assay; type: in vivo, Arabidopsis thaliana; details: five days in liquid medium, 1 μM RALF1, student T-test, n = 6, p<0.001 vs control
Excerpt: Supplementary file pgen.1008847.s003.pdf: S3 Fig Synthetic RALF1 peptide activity. […] Error bars represent standard error of the mean. (PDF) Click here for additional data file.

[10] = system: LRX3, LRX4, and LRX5; details: vegetative tissues; ref [40],[41]; cited from earlier work
Excerpt: LRX proteins were recently identified as high-affinity binding sites for RALF peptides, with the binding spectrum differing among the LRXs. […] Whether and how the binding of RALFs and FER to LRXs influences the interaction of these proteins remains to be investigated. It is also unknown to what extent the different LRXs are functionally similar and whether they share FER as a common interaction ...

[11] = system: LRX4; details: ref [15],[41]; cited from earlier work
[12] = system: FER; details: ref [15],[41]; cited from earlier work

Chain of LRX1 (LRX1^ΔE-FLAG) (O65375 27-381 limits assumed, stated change not applied): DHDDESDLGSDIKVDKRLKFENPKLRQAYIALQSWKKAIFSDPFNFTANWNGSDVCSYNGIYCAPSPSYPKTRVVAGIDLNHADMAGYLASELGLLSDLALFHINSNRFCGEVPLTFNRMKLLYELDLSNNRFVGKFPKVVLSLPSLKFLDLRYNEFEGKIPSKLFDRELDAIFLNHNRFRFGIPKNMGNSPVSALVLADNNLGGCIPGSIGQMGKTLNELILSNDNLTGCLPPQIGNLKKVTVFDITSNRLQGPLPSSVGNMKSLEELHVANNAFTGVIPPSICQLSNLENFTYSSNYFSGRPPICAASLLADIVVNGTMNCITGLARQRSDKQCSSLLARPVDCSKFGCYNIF
Chain of LRX4 (LRX4^ΔE-FLAG) (Q9LHF1 26-403 limits assumed, stated change not applied): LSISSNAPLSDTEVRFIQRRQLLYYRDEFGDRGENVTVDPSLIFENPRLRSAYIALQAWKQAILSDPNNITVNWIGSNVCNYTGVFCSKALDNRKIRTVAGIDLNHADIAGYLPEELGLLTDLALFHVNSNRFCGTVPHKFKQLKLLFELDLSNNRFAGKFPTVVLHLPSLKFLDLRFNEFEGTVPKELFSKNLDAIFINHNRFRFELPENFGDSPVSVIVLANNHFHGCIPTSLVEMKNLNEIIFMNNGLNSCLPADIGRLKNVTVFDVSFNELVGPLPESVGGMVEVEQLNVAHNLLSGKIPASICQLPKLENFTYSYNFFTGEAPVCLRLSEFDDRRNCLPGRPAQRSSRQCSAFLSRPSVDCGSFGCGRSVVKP
Chain of LRX5 (LRX5^ΔE-FLAG) (Q9SN46 32-405 limits assumed, stated change not applied): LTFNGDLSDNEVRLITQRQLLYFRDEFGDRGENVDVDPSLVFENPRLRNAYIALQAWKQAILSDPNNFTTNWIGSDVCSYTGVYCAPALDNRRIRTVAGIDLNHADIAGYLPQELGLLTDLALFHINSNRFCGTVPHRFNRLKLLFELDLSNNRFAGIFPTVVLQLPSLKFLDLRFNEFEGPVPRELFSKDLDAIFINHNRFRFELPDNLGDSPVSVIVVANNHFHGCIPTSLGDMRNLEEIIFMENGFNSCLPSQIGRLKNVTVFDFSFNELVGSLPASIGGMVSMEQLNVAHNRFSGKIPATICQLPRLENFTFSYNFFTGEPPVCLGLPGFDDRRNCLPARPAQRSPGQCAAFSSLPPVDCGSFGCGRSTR
Chain of LRX3 (LRX3^ΔE-FLAG) (Q9T0K5 21-388 limits assumed, stated change not applied): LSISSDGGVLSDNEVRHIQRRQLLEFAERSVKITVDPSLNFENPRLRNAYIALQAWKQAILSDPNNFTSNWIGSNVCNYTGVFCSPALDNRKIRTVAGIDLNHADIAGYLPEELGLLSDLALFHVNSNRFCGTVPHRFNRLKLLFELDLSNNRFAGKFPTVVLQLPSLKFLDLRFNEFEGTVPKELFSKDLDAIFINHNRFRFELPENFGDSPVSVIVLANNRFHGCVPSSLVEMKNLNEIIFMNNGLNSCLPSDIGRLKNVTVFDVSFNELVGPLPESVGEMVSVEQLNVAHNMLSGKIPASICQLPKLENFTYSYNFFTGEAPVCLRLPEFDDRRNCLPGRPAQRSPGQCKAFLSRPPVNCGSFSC

RALF1: in vitro synthesized RALF1 peptide hormone (PHTD peptides); gene At1G02900; expressed as AD-RALF1 in yeast-two-hybrid (ATTKYISYQSLKRNSVPCSRRGASYYNCQNGAQANPYSRGCSKIARCRS; UniProt Q9SRY3 72-120, looked up)
Kd [1]: 4.5 nM | affinity of LRX3 for RALF1, in words [2]: much lower affinity | Kd [3]: 5.5 nM | Kd [4]: 3.5 nM | interaction with LRX1^ΔE [5]: shows binding to RALF1 | interaction with LRX1 [6]: yeast cells grew effectively in the presence of the two proteins; also recorded: indicates interaction of the LRX proteins with RALF1 | interaction with LRX4 [7]: indicates interaction of the LRX proteins with RALF1 | effect on LRX1^ΔE-FER^ECD interaction [8]: does not influence the interaction of LRX1^ΔE with FER^ECD; also recorded: did not affect the interaction between LRX1^ΔE and FER^ECD | root growth inhibition [9]: effectively inhibited root growth of Arabidopsis seedlings; also recorded: significantly inhibited root growth | binding to LRX3, LRX4, and LRX5 [10]: reported to bind | binding to LRX4 [11]: has been shown to bind RALF1 | binding to FER [12]: also interacts with FER
